Data taken from US8178688B2, “Benzamidine derivatives, process for the preparation thereof and pharmaceutical composition comprising the same” (Dong Wha Pharmaceutical Co., Ltd., priority 2004, dated 2012).
Marks after values point to notes of the source that are not given here.

Experiments:
[1] = test system: rat models subjected to rib fracture; experiment: Effect of promoting fracture healing in rib fracture-induced rat model (callus volume, callus osteoid volume); assay type: in vivo, SD rats
Procedure: The benzamidine compounds were assayed for therapeutic effect on bone fracture in rat models subjected to rib fracture. Benzamidine derivates are dosed from 2 days after operation for 2 weeks, and the changes on the volume and histology of callus were observed.
A total of 54 SD rats (8 weeks old upon receipt, Jung Ang Lab. Animal Co., Korea) were used. While being housed at a density of three to a plastic cage, the experimental animals were kept in a breeding room under controlled temperature (20-25° C.) and humidity (30-35%). Under light-dark cycles of 12 hours, the rats were allowed to have free access to feedstuff and tap water.
200 mg of benzamidine compounds (Methansulfonic acid or Hydrochloride) were completely dissolved in 5 ml of sterilized distilled water. The benzamidine derivatives in the solutions was orally administered at doses of 200 mg per kg of body weight once a day for 2 weeks from day 2 of the surgery.
8th and 9th rib of each animal was exposed by general operation under ketamine HCl and xylazine HCl anesthesia, and the exposed ribs were crossly dissected using surgical scissors. After rib-fracture, surgical wounds were closed with general skin suture.
8th and 9th ribs of each animal were separated at sacrifice and then the long axis and short axis of callus were calculated as mm units. The volume of callus was calculated as following Equation 2. Callus volume(mm^3)=(a×b^2)/2 Equation 2 • a: long diameter of bony callus • b: short diameter of bony callus
The 8th rib including fracture sites of each rat was separated and fixed in 10% neutral buffered formalin, and then decalcified in decalcifying solution (24.4% formic acid, and 0.5N sodium hydroxide) for 5 days (mixed decalcifying solution was exchanges once a day for 5 days). After decalcification, the rib was embedded in paraffin, sectioned (3˜4 μm) and stained with hematoxylin-eosin or Masson's trichrome for composition of callus observation.
Osteloid volume (OV/callus) in callus regions of prepared histological specimens were detected as % levels using automated image analysis (analySIS Image Processing; SIS, Germany) under microscopy.

[2] = test system: mouse models of ovalbumin-induced asthma; experiment: Therapeutic effect in mouse model of asthma induced with ovalbumin (lung weight, total leukocytes in blood and BALF); assay type: in vivo, C57BL/6 mice
Procedure: The benzamidine compounds were assated for therapeutic effect on allergic inflammation in mouse models of ovalbumin-induced asthma. Starting on the day of immunization the benzamidine compounds were dosed for 17 consecutive days. The experimental animals were re-exposed to ovalbumin 14 days after the sensitization and then sacrificed 3 days after the re-exposure. Changes in lung weight, cellular components of peripheral blood and bronchoalveolar lavage fluid, and lung histopathology were observed.
A total of 110 female C57BL/6 mice (7-week-old, SLC, Japan) were adapted to a laboratory environment for 6 days before being used in earnest experiments. While being housed at a densirt of five in a plastic cage, the experimental animals were breed in a breeding room with controlled temperature (20-25° C.) and humidity (30-35%). Under light-dark cycles of 12 hours, mice were allowed to have free access to feedstuff and tap water. While asthma was induced in 100 mice by ovalbumin, 10 mice were used as a non-treated group.
200 mg of benzamidine compounds (Methansulfonic acid or Hydrochloride) were completely dissolved in 5 ml of sterilized distilled water. The benzamidine compound in the solutions was orally administered at doses of 200 mg per kg of body weight once a day from the day of the sensitization with ovalbumin. The control group was administered with equal volumes of sterilized distilled water in the same manner.
A solution of 200 μg of ovalbumin (Grade VI; Sigma, st. Louis, Mo., USA) and 180 mg of aluminium hydroxide (Al(OH)3, dried powder gel; Aldrich, Milwaukee, USA) in 4 ml of physiological saline was allowed to stand at 4° C. overnight and was administered to the experimental animals (200 μl, abdominal injection) for sensitization. As for the non-treated group, a solution of only aluminium hydroxide in saline was injected. 15 days after sensitization, a 1.5% ovalbumin solution was sprayed in air using a nebulizer, followed by exposing the experimental animals to the spray for 10 min to induce asthma therein. The non-treated group was exposed only to saline in the same manner. All the experimental animals were sacrificed 3 days after the exposure.
On the final day of experiment, the lungs were separated form adjacent organs. The removed lungs were weight among individual animals, the relative weight of the lungs was calculated as a percentage of body weight using the following Equation 3. Relative weight of Lung(%)=(Absolute lung weight/Body weight)×100 Equation 3
On the final day of experiment, all the experimental animals were etherized and underwent laparotomy to expose the abdominal vena cava, from which 1 ml of blood was the taken. Using a hemocytometer, a blood sample was measured for total leukocyte counts in a ×10^3/1 mm^3 units.
On the final day of experiment, secretions present in bronchi and alveola were examined for cyrological constitution. After veing etherized, the experimental animals were operated to open the cervical region and the thorax. The jugular vein was allowed to bleed, followed by endotracheal intubation. 3 ml of phosphate buffered saline was injected twice through the tube and the thorax was massaged for 30 sec to obtain cell suspension from the lungs. Using a hemocytometer, a […] was measured for total leukocyte counts in a ×10^5/1 ml units.

[3] = test system: osteoclast differentiation; experiment: Inhibitory effects on osteoclast differentiation (co-culture of bone marrow cells with osteoblast, TRAP staining); assay type: cell-based, mice; settings: Mus musculus, Osteoclast, 168 h; 1 m; co-culture of bone marrow cells and osteoblast, 7 days, TRAP-positive osteoclasts versus controls; read-out: % inhibitory activity on osteoclastogenesis
Summary of the method: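 Percent inhibition versus control is based on microscope counts of TRAP-positive osteoclasts (3 or more nuclei) after 7 days of compound exposure. Cultures paired ddY mouse marrow cells with ICR calvarial osteoblasts, driven by dexamethasone 10^−7M plus vitamin D3 10^−8M, with medium and compound changed every 2–3 days.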

CNc1nc(-c2ccc(OCCCCCOc3ccc(C(=N)NO)cc3)cc2)c(CCCl)s1 [Example 115, N-hydroxy-4-(5-[4-(5-(2-chloroethyl)-2-methylamino-1,3-thiazol-4-yl)phenoxy]pentoxy)-benzamidine]
Changes on callus volume (mm^3) ([1]; 200 mg/kg oral once a day for 2 weeks from day 2 of surgery, 8th and 9th ribs, vehicle control 37.22 ± 8.23): 24.06 ± 9.64* mm^3 | Changes on callus osteoid volume (OV/callus, %) ([1]; 200 mg/kg oral once a day for 2 weeks, 8th rib, vehicle control 35.88 ± 5.06): 41.94 ± 6.33% | Changes on the lung weight, Absolute ([2]; 200 mg/kg oral once a day from sensitization, vehicle control 0.134 ± 0.012, sham 0.110 ± 0.009): 0.114 ± 0.009 g | Changes on the lung weight, Relative (%) ([2]; 200 mg/kg oral once a day, % of body weight, vehicle control 0.780 ± 0.103, sham 0.694 ± 0.049): 0.705 ± 0.046% | inhibition at 1 µM [3]: 96%
